Data: patent US4058608A, “Method of treating fungus-infected plants with phenylazocyanoacetic ester derivatives” (Chinoin Gyogyszer es Vegyeszeti Termekek Gyara RT, priority 1974, dated 1977)

How the values were obtained:
mice = assay: toxicity tests on mice; assay type: in vivo; conditions: single treatment, one week observation
Procedure: (§1) 5, 10 or 20% of active agent were suspended in 0.1% agar gel, and the obtained homogeneous suspensions were injected intraperitoneally into mice, or were administered into the stomach of the animals via a stomach tube. The animals were kept under observation for one week after a single treatment, and the toxicity data were evaluated on the basis of the percentage deaths observed in this period.

toxicity tests on mice = assay type: in vivo; conditions: mouse, in vivo, ip, intraperitoneal administration, calculated from LD0 and LD100
Procedure: as §1

[1] = oral administration (stomach tube)

| SMILES | LD0 (mice; intraperitoneal administration) [mg/kg] | LD100 (mice; intraperitoneal administration) [mg/kg] | LD0 (mice; [1]) [mg/kg] | LD100 (mice; [1]) [mg/kg] | LD50 at 168 h (toxicity tests on mice) [mg/kg] |
| --- | --- | --- | --- | --- | --- |
| CCOC(=O)C(C#N)N=Nc1cccc(Cl)c1 (centres unmarked) [C2 H5 -- H Cl H] | 200 | 600 | 6000 | 6000 | 400 |
| CCOC(=O)C(C#N)N=Nc1ccc(Cl)cc1 (centres unmarked) [C2 H5 -- H H Cl] | 200 | 600 | 6000 | 6000 | 400 |
| CC(C)OC(=O)C(C#N)N=Nc1cccc(Cl)c1 (centres unmarked) [i-C3 H7 -- H Cl H] | 300 | 800 | 6000 | 6000 | 500 |
| CC(C)OC(=O)C(C#N)N=Nc1ccc(Cl)cc1 (centres unmarked) [i-C3 H7 -- H H Cl] | 400 | 1000 | 6000 | 6000 | 600 |
| CCCOC(=O)C(C#N)N=Nc1cccc(Cl)c1 (centres unmarked) [n-C3 H7 -- H Cl H] | 300 | 800 | 6000 | 6000 | 500 |
| CCCOC(=O)C(C#N)N=Nc1ccc(Cl)cc1 (centres unmarked) [n-C3 H7 -- H H Cl] | 400 | 1000 | 6000 | 6000 | 600 |
| CCCCOC(=O)C(C#N)N=Nc1cccc(Cl)c1 (centres unmarked) [n-C4 H9 -- H Cl H] | 500 | 1000 | 6000 | 6000 | 800 |
| CCCCOC(=O)C(C#N)N=Nc1ccc(Cl)cc1 (centres unmarked) [n-C4 H9 -- H H Cl] | 500 | 1000 | 6000 | 6000 | 800 |
| CCCCOC(=O)C(C#N)N=Nc1ccc([N+](=O)[O-])cc1 (centres unmarked) [n-C4 H9 -- H H NO2 --] | 400 | 800 | 6000 | 6000 | 600 |
| CCCCOC(=O)C(C#N)N=Nc1cccc([N+](=O)[O-])c1 (centres unmarked) [n-C4 H9 -- H NO2 -- H] | 400 | 800 | 6000 | 6000 | 600 |
